Assay results published in patent US20150299277A1, “AGENT FOR TREATING OR PREVENTING SYSTEMIC INFLAMMATORY RESPONSE SYNDROME” (THE UNIVERSITY OF TOKYO, priority 2012, published 2015).
Entries after “also recorded” stand apart in the source; their conditions may differ.

Assays:
[1] = tested on: each histone; assay: ELISA binding assay; set-up: species or system human; settings: buffers containing 4 mM CaCl2 or 4 mM EDTA
Description: Recombinant human histone (NEB) was adjusted to a concentration of 1 μg/mL in TBS, added to a 96 well ELISA plate, and immobilized at 4° C. overnight. The solution was discarded, a blocking buffer (TBS, 0.1% Triton-X100, 1% BSA) was added, and the plate was incubated at room temperature for 2 hr. The plate was washed four times with a wash buffer (TBS, 0.1% Triton-X100), recombinant PTX3 diluted to various concentrations with the blocking buffer was added to each well, and reacted at room temperature for 1 hr. After washing four times with the wash buffer, HRP-labeled antibody diluted with the blocking buffer was added, and reacted at room temperature for 1 hr. After washing four times with the wash buffer, TMB solution was added to carry out a color development reaction for 30 min, and the absorbance at 450 nm was measured. […]
The binding level between immobilized each recombinant histone and tag-free recombinant human PTX3 (rhPTX3) was measured by binding assay (ELISA). […] ELISA was performed with duplicate wells for each point, and means and standard deviations were calculated from three independent experiments.
The binding level between immobilized each recombinant histone and a tagged human PTX3 fragment was measured by binding assay (ELISA). […] ELISA was performed with duplicate wells for each point, and means and standard deviations were calculated from three independent experiments.

[2] = biological target: T1, histone H4 (Homo sapiens, UniProt P62805); assay: CD spectrum of histone H4-PTX3 complex
Description: The CD spectrum of the histone H4-PTX3 complex was measured. The N-terminal domain of PTX3 (25 μg/mL) and histone H4 (5 μg/mL) were each independently measured, and further, the histone H4-PTX3 mixture was measured (FIG. 6D).

[3] = tested on: mouse subjected to cecal ligation and puncture (CLP); assay: Cecal ligation and puncture (CLP) mouse; type: in vivo; settings: 5 mg/kg with gentamicin 5 mg/kg, 4 hr after CLP, versus gentamicin alone
Description: For cecal ligation and puncture (CLP) treatment, male C57BL/6 mouse was anesthetized, laparotomy was performed, and cecum was exposed and ligated. A hole is made with an injection needle at the middle between the ligated site and cecum peripheral site, and the abdomen is closed. Four hours from the CLP treatment, the N-terminal domain of PTX3 (5 mg/kg) and gentamicin (5 mg/kg), or gentamicin (5 mg/kg) alone were(was) administered to the mouse.
Mouse was subjected to cecal ligation and puncture (CLP) treatment and, 4 hr later from the treatment, the N-terminal domain of PTX3 (5 mg/kg) and gentamicin (5 mg/kg), or gentamicin (5 mg/kg) alone were(was) administered to the mouse.

[4] = biological target: T2, histone H2B (Homo sapiens, UniProt Q16778); assay: ELISA binding assay; settings: immobilized recombinant histone
T2 construct: purchased NEB
Description: (§1) Recombinant human histone (NEB) was adjusted to a concentration of 1 μg/mL in TBS, added to a 96 well ELISA plate, and immobilized at 4° C. overnight. The solution was discarded, a blocking buffer (TBS, 0.1% Triton-X100, 1% BSA) was added, and the plate was incubated at room temperature for 2 hr. The plate was washed four times with a wash buffer (TBS, 0.1% Triton-X100), recombinant PTX3 diluted to various concentrations with the blocking buffer was added to each well, and reacted at room temperature for 1 hr. After washing four times with the wash buffer, HRP-labeled antibody diluted with the blocking buffer was added, and reacted at room temperature for 1 hr. After washing four times with the wash buffer, TMB solution was added to carry out a color development reaction for 30 min, and the absorbance at 450 nm was measured. Assay was performed using all the buffers containing 4 mM CaCl2 or 4 mM EDTA.
(§2) The binding level between immobilized each recombinant histone and a tagged human PTX3 fragment was measured by binding assay (ELISA). For detection, HRP-labeled anti-His (6×His) antibody was used. ELISA was performed with duplicate wells for each point, and means and standard deviations were calculated from three independent experiments.

[5] = biological target: T3, histone H2A (Homo sapiens, UniProt Q7L7L0); assay: ELISA binding assay; settings: immobilized recombinant histone
T3 construct: purchased NEB
Description: as §1, §2

[6] = tested on: histone H4 on HUVEC; assay: Cytotoxic assay: suppression of histone cytotoxicity on HUVEC; type: cell-based, human; settings: 1 hr culture, PI staining, FACS
Description: (§3) Normal human umbilical vein endothelial cells (HUVECs) were cultured in EGM2 medium (Clonetics). The cells after culture were washed with PBS, added with Opti-MEM medium containing an product of incubation of activated protein C (APC), PTX3, C reactive protein (CRP) or Serum amyloid P component (SAP) with histone for 1 hr, and the cells were further cultured for 1 hr. Propidium iodide (PI) was added to the medium after culture at a final concentration of 10 μg/mL, and the cells were stained for 10 min. The cells were washed with PBS, detached and analyzed by flow cytometry.
(§4) Using each recombinant histone instead of Calf Thymus Histones, a suppressive effect of full-length PTX3 or the N-terminal domain of PTX3 on histone cytotoxicity was studied in the same manner.
Lastly, capacity of suppressing the cytotoxic activity of histone was confirmed. Since this experiment requires a certain amount of protein and an endotoxin-elimination as treatment, a protein was expressed and purified at a 500 mL culture scale, and subjected to an endotoxin-elimination treatment (FIG. 18). In the case of PTX3 N-terminal domain, about 10 mg was obtained at a 500 mL culture scale, and a loss by the endotoxin-elimination treatment was scarcely observed. […] A capacity of fragment proteins obtained at a 500 mL scale on HUVEC to suppress histone cytotoxicity was studied. […]

[7] = tested on: mice intraperitoneally administered with LPS; assay: LPS-administered mouse; type: in vivo
Description: At 0, 6 and 24 hr from the LPS administration, heparin plasma was collected, and the concentrations of mouse IL-6 and mouse VEGF were measured using ELISA kit (R&D).
The survival rate of the mice intraperitoneally administered with LPS at a concentration of 16 mg/kg is shown. The N-terminal domain of PTX3 (5 mg/kg) or control buffer was intraperitoneally administered 2 hr prior to LPS administration. In addition, the time-course changes in the plasma IL-6 and VEGF levels of the LPS-administrated mice treated with the N-terminal domain of PTX3 were measured by ELISA.

[8] = biological target: T1, histone H4; assay: PTX3-histone aggregation, UV-visible absorption spectrum (310 nm); type: binding; set-up: purchased NEB; settings: PTX3 at various concentrations mixed with histone H4
Description: 0.1 mg/mL human histone H4 was mixed with equal volume of various concentrations of Myc-tagged full-length PTX3, and UV-visible absorption spectrum was measured. A graph of absorbance at 310 nm is shown at the top.
Full-length PTX3 at each concentration was mixed with 50 μg/mL histone H4, and UV-visible absorption spectrum (wavelength 310 nm) was measured.

[9] = tested on: each recombinant histone on HUVEC; assay: Cytotoxic assay: suppression of histone cytotoxicity on HUVEC; type: cell-based, human; settings: 1 hr culture, PI staining, FACS
Description: as §3, §4

[10] = tested on: Calf Thymus Histones; assay: Dose-dependent precipitate formation (supernatant after centrifugation); type: binding; settings: PTX3 0, 12.5, 25, 50 μg/mL; histones 50 μg/mL
Description: (§5) Full-length PTX3 at each concentration (0, 12.5, 25, 50 μg/mL) was mixed with Calf Thymus Histones (50 μg/mL) or histone H4 (50 μg/mL), and the mixture was centrifuged. The obtained supernatant was subjected to immunoblotting using PPZ-1228 or SYPRO Ruby staining.

[11] = biological target: T1, histone H4; assay: as above; type: binding; settings: PTX3 0, 12.5, 25, 50 μg/mL; histone H4 50 μg/mL
Description: as §5

[12] = LPS-administrated mice, 5 mg/kg, ELISA

Substance	influence of calcium ion on binding to each histone [1]	CD spectrum, mixed with histone H4 ([2]; 25 μg/mL with histone H4 5 μg/mL)	CD spectrum, alone ([2]; 25 μg/mL, measured independently)	mortality due to the CLP treatment [3]	bindability to histone H2B (binding assay) [4]	bindability to histone H2A (binding assay) [5]	suppression of toxic activity of histone H4 on HUVEC [6]	inflammatory reaction caused by LPS administration (biochemical study of blood) ([7]; 5 mg/kg intraperitoneally 2 hr prior to LPS 16 mg/kg)	mortality due to LPS administration ([7]; 5 mg/kg intraperitoneally 2 hr prior to LPS 16 mg/kg, C57BL/6 mice)	plasma IL-6 level [7, 12]	plasma VEGF level [7, 12]	aggregation with histone H4, UV-visible absorption spectrum [8]	suppression of toxic activity of each recombinant histone on HUVEC [9]	precipitate formation with Calf Thymus Histones [10]	precipitate formation with histone H4 [11]
N-terminal domain of PTX3: N-terminal domain human PTX3 (18-178 amino acids, SEQ ID NO: 3), tagged, expressed in CHO cells or Escherichia coli	stronger binding was found in the presence of calcium ion	did not afford a spectrum pattern showing a general secondary structure	a spectrum pattern having α-helix in the secondary structure	significantly improved	lower than that of the full-length PTX3	lower than that of the full-length PTX3	suppress; also recorded: suppressed	suppressed	significantly improved mortality	suppressed	suppressed				
full-length PTX3: full-length human pentraxin 3 (1-381 amino acids, SEQ ID NO: 2), used tag-free or Myc- and His-tagged	stronger binding was found in the presence of calcium ion											dose-dependent spectrum	suppressed	precipitated as an insoluble product	precipitated as an insoluble product
